What was measured:
Test in all cases: Cell viability drug screen, 12-point dose-response AUC
Format in all cases: cell-based, human
FU97 = tested on: FU97; design: Average Area Under the Viability Curve (AUC), AUC norm value: scale not given here; conditions: FU97 cells; 72 hours
Procedure, shortened: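 Trapezoidal AUC of a 12-point, DMSO-normalized dose-response curve. Luminescent viability was measured after 72 h of exposure at 37° C to half-log serial dilutions (0.5% DMSO control), dosed 24 h after plating FU97 cells at 5×10^3 per well.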

Hs746T = Hs746T cells (SEM subtype); 72 hours
Procedure, shortened: (§1)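 Luminescent viability readings, taken 15 min after reagent addition at room temperature, were normalized to the 0.5% DMSO control to build 12-point dose-response curves. Trapezoidal integration gave the AUC. Cells had been plated at 5×10^3 per well and then exposed to half-log dilutions for 72 h.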

YCC2 = YCC2 cells; 72 hours
Procedure, shortened: as §1

SNU216 = SNU216 cells (non-SEM subtype); 72 hours
Procedure, shortened: as §1

MKN1 = MKN1 cells; 72 hours
Procedure, shortened: as §1

SK4 = SK4 cells (SEM subtype); 72 hours
Procedure, shortened: as §1

MKN28 = MKN28 cells; 72 hours
Procedure, shortened: as §1

SNU1967 = SNU1967 cells; 72 hours
Procedure, shortened: as §1

SNU16 = SNU16 cells; 72 hours
Procedure, shortened: as §1

SNU484 = SNU484 cells (SEM subtype); 72 hours
Procedure, shortened: as §1

KATO3 = KATO3 cells; 72 hours
Procedure, shortened: as §1

YCC11 = YCC11 cells (SEM subtype); 72 hours
Procedure, shortened: as §1

SNU620 = SNU620 cells; 72 hours
Procedure, shortened: as §1

SNU601 = SNU601 cells; 72 hours
Procedure, shortened: as §1

NCI_N87 = NCI_N87 cells; 72 hours
Procedure, shortened: as §1

AGS = AGS cells (non-SEM subtype); 72 hours
Procedure, shortened: as §1

MKN45 = MKN45 cells (non-SEM subtype); 72 hours
Procedure, shortened: as §1

OCUM1 = OCUM1 cells; 72 hours
Procedure, shortened: as §1

SNU1 = SNU1 cells; 72 hours
Procedure, shortened: as §1

MKN74 = MKN74 cells; 72 hours
Procedure, shortened: as §1

SNU668 = SNU668 cells (SEM subtype); 72 hours
Procedure, shortened: as §1

SNU719 = SNU719 cells; 72 hours
Procedure, shortened: as §1

NCC59 = NCC59 cells; 72 hours
Procedure, shortened: as §1

SNU638 = SNU638 cells; 72 hours
Procedure, shortened: as §1

NCC20 = NCC20 cells; 72 hours
Procedure, shortened: as §1

SNU1750 = SNU1750 cells (SEM subtype); 72 hours
Procedure, shortened: as §1

NCC24 = NCC24 cells; 72 hours
Procedure, shortened: as §1

NCC19 = NCC19 cells; 72 hours
Procedure, shortened: as §1

YCC3 = YCC3 cells; 72 hours
Procedure, shortened: as §1

SMILES | Average Area Under the Viability Curve (AUC), AUC norm value (FU97) | Average Area Under the Viability Curve (AUC), AUC norm value (Hs746T) | Average Area Under the Viability Curve (AUC), AUC norm value (YCC2) | Average Area Under the Viability Curve (AUC), AUC norm value (SNU216) | Average Area Under the Viability Curve (AUC), AUC norm value (MKN1) | Average Area Under the Viability Curve (AUC), AUC norm value (SK4) | Average Area Under the Viability Curve (AUC), AUC norm value (MKN28) | Average Area Under the Viability Curve (AUC), AUC norm value (SNU1967) | Average Area Under the Viability Curve (AUC), AUC norm value (SNU16) | Average Area Under the Viability Curve (AUC), AUC norm value (SNU484) | Average Area Under the Viability Curve (AUC), AUC norm value (KATO3) | Average Area Under the Viability Curve (AUC), AUC norm value (YCC11) | Average Area Under the Viability Curve (AUC), AUC norm value (SNU620) | Average Area Under the Viability Curve (AUC), AUC norm value (SNU601) | Average Area Under the Viability Curve (AUC), AUC norm value (NCI_N87) | Average Area Under the Viability Curve (AUC), AUC norm value (AGS) | Average Area Under the Viability Curve (AUC), AUC norm value (MKN45) | Average Area Under the Viability Curve (AUC), AUC norm value (OCUM1) | Average Area Under the Viability Curve (AUC), AUC norm value (SNU1) | Average Area Under the Viability Curve (AUC), AUC norm value (MKN74) | other results
CC(C)C[C@H](NC(=O)[C@H](CCc1ccccc1)NC(=O)CN1CCOCC1)C(=O)N[C@@H](Cc1ccccc1)C(=O)N[C@@H](CC(C)C)C(=O)[C@@]1(C)CO1 [Carfilzomib (PR-171), Carfilzomib] | −0.1687 | −1.399 | 0.8534 | 0 | 0.1771 | −0.2415 | −0.7065 | −0.5586 | −1.3183 | −0.7602 | 0.1004 | −0.7607 | −0.4242 | 1.489 | 0.5098 | −0.131 | 0.5553 | 1.245 | 0.1391 | −0.3162 | Average Area Under the Viability Curve (AUC), AUC norm value (SNU668): 1.899; Average Area Under the Viability Curve (AUC), AUC norm value (SNU719): 0.5178; Average Area Under the Viability Curve (AUC), AUC norm value (NCC59): 0.8592; Average Area Under the Viability Curve (AUC), AUC norm value (SNU638): 0.1464; Average Area Under the Viability Curve (AUC), AUC norm value (NCC20): −2.002; Average Area Under the Viability Curve (AUC), AUC norm value (SNU1750): −0.9787; Average Area Under the Viability Curve (AUC), AUC norm value (NCC24): −0.8995; Average Area Under the Viability Curve (AUC), AUC norm value (NCC19): 1.562; Average Area Under the Viability Curve (AUC), AUC norm value (YCC3): 1.747
C/C=C(\C)C(=O)N[C@@H](c1ccccc1)[C@@H](O)C(=O)O[C@H]1C[C@@]2(O)[C@@H](OC(=O)c3ccccc3)[C@@H]3[C@]4(OC(C)=O)CO[C@@H]4C[C@H](O)[C@@]3(C)C(=O)[C@H](OC(C)=O)C(=C1C)C2(C)C [Cephalomannine] | 0.4107 | 0.449 | 0.3838 | 1.8612 | −1.486 | −1.144 | −1.697 | 0.6525 | −1.737 | −0.7051 | 4.179 | −1.013 | −2.403 | 0.2225 | −1.26 | −2.055 | 0 | 1.3887 | −2.056 | 0.3528 | Average Area Under the Viability Curve (AUC), AUC norm value (SNU668): −0.1911; Average Area Under the Viability Curve (AUC), AUC norm value (SNU719): 4.893; Average Area Under the Viability Curve (AUC), AUC norm value (NCC59): 2.734; Average Area Under the Viability Curve (AUC), AUC norm value (SNU638): −0.03958; Average Area Under the Viability Curve (AUC), AUC norm value (NCC20): −0.5011; Average Area Under the Viability Curve (AUC), AUC norm value (SNU1750): 1.009; Average Area Under the Viability Curve (AUC), AUC norm value (NCC24): −0.7716; Average Area Under the Viability Curve (AUC), AUC norm value (NCC19): 1.7094; Average Area Under the Viability Curve (AUC), AUC norm value (YCC3): 2.809
CCCCCCCCCCCCCCCC[n+]1ccccc1 [Cetylpyridinium Chloride] | −2.039 | 0.2943 | 0.1421 | −0.1483 | 0.9994 | −1.312 | 0.4876 | −0.5001 | −0.1534 | −0.7401 | 1.072 | −1.129 | 0.09525 | 2.328 | 1.075 | −0.1044 | 0 | −0.1441 | 0.5171 | −0.4176 | Average Area Under the Viability Curve (AUC), AUC norm value (SNU668): −0.02952; Average Area Under the Viability Curve (AUC), AUC norm value (SNU719): 1.718; Average Area Under the Viability Curve (AUC), AUC norm value (NCC59): 1.497; Average Area Under the Viability Curve (AUC), AUC norm value (SNU638): −0.3142; Average Area Under the Viability Curve (AUC), AUC norm value (NCC20): −0.2318; Average Area Under the Viability Curve (AUC), AUC norm value (SNU1750): −0.3613; Average Area Under the Viability Curve (AUC), AUC norm value (NCC24): 0.06564; Average Area Under the Viability Curve (AUC), AUC norm value (NCC19): 1.205; Average Area Under the Viability Curve (AUC), AUC norm value (YCC3): 0.3901

Reference: patent publication US20250129430A1, “HIGH ATP-AFFINITY PROTEIN AS THERAPEUTIC TARGET FOR INTRACTABLE CANCER MOLECULAR SUBTYPES AND INHIBITOR THEREOF” (VeraVerse Co., Ltd., priority 2021, published 2025)
